Measurements published in patent publication US11466273B2, “Monocarboxylate transporter 4 (MCT4) antisense oligonucleotide (ASO) inhibitors for use as therapeutics in the treatment of cancer” (THE UNIVERSITY OF BRITISH COLUMBIA, priority 2015, dated 2022).
Strand notation (5' to 3'): a small letter for the sugar, then the base; units joined by * are phosphorothioate-linked, units joined directly phosphodiester-linked; [ ] holds rarer units or linkages, { } end groups; capitals alone tell only the bases. d = 2'-deoxy (DNA)

Tested on: MCT4
Assay: Percent inhibition of MCT4 by MCT4 ASOs (knock-down after transfection, qPCR/Western blot)
Type: cell-based, human
Details: Table A; ASOs transfected at 100 nM for 48 hours unless otherwise indicated
Experimental: First-generation phosphorothioate-modified ASOs against human MCT4 were rationally designed by selecting sequences containing favourable motifs while excluding unfavourable ones (Matveeva et al., 2000). Specificity of MCT4-targeting sequences, compared to human and mouse genes (at least 3 of 20 bases mismatched), was evaluated using BLAST. Ten sequences SEQ ID No: 1, 4, 5, 9, 11, 30, 36, 37, 40 and 41 (see TABLE A) distributed throughout the length of the transcript with perfect complementarity to all human MCT4 transcript variants (NM_001042422.2, NM_001042423.2, NM_001206950.1, NM_001206951.1, NM_001206952.1, and NM_004207.3) were selected and synthesized by Eurofins MWG Operon. The knock-down efficiencies of these ten ASOs were tested by determining target mRNA and protein expression 48 hours after transfection of cells using qPCR and Western blotting. Two candidate ASOs (#1 and #14—SEQ ID NOs: 1 and 5, respectively) were selected for further studies. Sequences: ASO #1 (SEQ ID NO: 1), 5′-[…]-3′; ASO #14 (SEQ ID NO: 5), 5′-[…]-3′; a published non-targeting control ASO, 5′-[…]-3′ (Mullick et al., 2011; Samuel et al., 2006).
Cells were transfected in 6-well plates with ASOs at 100 nM for 48 hours (unless otherwise indicated) using Oligofectamine™ (Invitrogen™, Carlsbad, Calif.) or with MCT4-targeting siRNAs and controls (Dharmacon™, Chicago, Ill.) at 50 nM for 48 hours using Lipofectamine™ 2000 (Invitrogen™), following the manufacturer's instructions.
Total RNA was isolated using the RNeasy Mini Kit™ (Qiagen Inc.™, Hilden, Germany) and cDNA synthesized using the QuantiTect Reverse Transcription Kit™ (Qiagen™). Primers were designed using Primer-BLAST™. qRT-PCR reactions using KAPA SYBR Fast Universal™ (Kapa Biosystems™, Woburn, Mass.) were performed in triplicate in a ViiA 7 Real-Time PCR™ system (Applied Biosystems™, Foster City, Calif.). Target genes were normalized to a geometric average of 3 internal reference genes (Vandesompele et al., 2002).
Cells were harvested and lysed in RIPA buffer (50 mM Tris-Cl pH 7.4, 150 mM NaCl, 1% Igepal, 0.5% Na-deoxycholate, 0.1% SDS) supplemented with a complete protease inhibitor cocktail (Roche, Nutley, N.J.). The protein concentration of the lysate was determined by Pierce BCA Protein Assay™ (Thermo Scientific™, Waltham, Mass.). The lysate was run on 8% SDS polyacrylamide gel (20 ug of protein per lane) and proteins were transferred onto PVDF membrane (Millipore™, Billerica, Mass.). The blot was blocked with the Odyssey™ blocking buffer (Li-cor Biosciences™) and probed with anti-MCT4 antibody. Vinculin was used as a loading control. Following overnight incubation at 4° C., the primary antibody was probed with the corresponding secondary antibody and detected using the Odyssey Infrared Imaging System™ (Li-cor Biosciences™) and Image Studio Version 3.1™ (Li-cor Biosciences™). Densitometry analysis was done using ImageJ (U.S. National Institutes of Health, Bethesda, Md.).

Compared with “1 (TCCCATGGCCAGGAGGGTTG; antisense; DNA, all phosphorothioate, methylation of C not given here; listed as Homo sapiens) [compound 1]”, “2 (GTCCCGGAAGACGCTCAGGT; antisense; DNA, all phosphorothioate, methylation of C not given here; listed as Homo sapiens) [compound 2]” is higher in “% MCT4 Inhibition” value: 65.52% for the first, 86.33% for the second.

First: 3 (AAGGACGCAGCCACCATGCC; antisense; DNA, all phosphorothioate, methylation of C not given here; listed as Homo sapiens) [compound 3]
Second: 4 (TTGGCGTAGCTCACCACGAA; antisense; DNA, all phosphorothioate, methylation of C not given here; listed as Homo sapiens) [compound 4]
The “% MCT4 Inhibition” value of the first is lower: 71.19% for the first, 77.13% for the second.

Going from “5 (AGATGCAGAAGACCACGAGG; antisense; DNA, all phosphorothioate, methylation of C not given here; listed as Homo sapiens) [compound 5]” to “6 (CCACTCTGGAATGACACGGT; antisense; DNA, all phosphorothioate, methylation of C not given here; listed as Homo sapiens) [compound 6]”, the “% MCT4 Inhibition” value rises from 78.16% to 78.67%.

Going from “7 (GTAGGAGAAGCCAGTGATGAC; antisense; DNA, all phosphorothioate, methylation of C not given here; listed as Homo sapiens) [compound 7]” to “8 (AGCATGGCCAGCAGGATGGA; antisense; DNA, all phosphorothioate, methylation of C not given here; listed as Homo sapiens) [compound 8]”, the “% MCT4 Inhibition” value rises from 66.31% to 80.77%.

Compared with “9 (GGCTGGAAGTTGAGTGCCAA; antisense; DNA, all phosphorothioate, methylation of C not given here; listed as Homo sapiens) [compound 9]”, “10 (CATGCCGTAGGAGATGCCAA; antisense; DNA, all phosphorothioate, methylation of C not given here; listed as Homo sapiens) [compound 10]” is higher in “% MCT4 Inhibition” value: 76.03% for the first, 76.51% for the second.

Going from “11 (CTCAGGCTGTGGCTCTTTGG; antisense; DNA, all phosphorothioate, methylation of C not given here; listed as Homo sapiens) [compound 11]” to “12 (TAGCGGTTCAGCATGATGA; antisense; DNA, all phosphorothioate, methylation of C not given here; listed as Homo sapiens) [compound 12]”, the “% MCT4 Inhibition” value rises from 63.01% to 70.36%.

Compared with “13 (AGCACGGCCCAGCCCCAGCC; antisense; DNA, all phosphorothioate, methylation of C not given here; listed as Homo sapiens) [compound 13]”, “14 (GAGCTCCTTGAAGAAGACACT; antisense; DNA, all phosphorothioate, methylation of C not given here; listed as Homo sapiens) [compound 14]” is higher in “% MCT4 Inhibition” value: 66.85% for the first, 72.00% for the second.

Going from “15 (dC*dA*dG*dG*dA*dT*dG*dG*dA*dG*dG*dA*dG*dA*dT*dC*dC*dA*dG*dG; antisense; listed as Homo sapiens) [compound 15]” to “16 (dA*dG*dA*dC*dC*dC*dC*dC*dC*dA*dC*dA*dA*dG*dC*dA*dT*dG*dA*dC; antisense; listed as Homo sapiens) [compound 16]”, the “% MCT4 Inhibition” value falls from 75.58% to 55.47%.

With “17 (dG*dA*dA*dG*dT*dT*dG*dA*dG*dT*dG*dC*dC*dA*dA*dA*dC*dC*dC*dA*dA; antisense; listed as Homo sapiens) [compound 17]” the “% MCT4 Inhibition” value was 70.93%.

Same assay, conditions: Table B; SEQ ID NO 1 and 16 mer truncations

In the case of “1 (TCCCATGGCCAGGAGGGTTG; antisense; DNA, all phosphorothioate, methylation of C not given here; listed as Homo sapiens) [compound 1]”, the “% MCT4 Inhibition” value is reported as 65.52%.
